Like-named read-outs stand apart in the source and are kept apart here.
How the values were obtained:
229E Mpro = 229E Mpro (Human coronavirus 229E, UniProt P0C6X1); test: 229E Mpro enzymatic assay; assay type: biochemical, HCoV 229E
Description: (§1) Compounds were assayed using standard methods to assess compound activity and IC50. As an exemplary for assessment of the SARS-COV2 Mpro, the C-His6-tagged Mpro (NC_045512) was cloned, expressed in E. coli and purified. The assay buffer contained 20 mM of Tris-HCl (pH 7.3), 100 mM of NaCl, 1 mM of EDTA, 5 mM of TCEP and 0.1% BSA. The final concentrations of the Mpro protein and substrate were 25 nM and 25 μM, respectively, in the Mpro enzymatic assay. The Km of the Mpro substrate for the protease was 13.5 μM.
(§2) The compounds were added to an assay plate. For 100% inhibition control (HPE, hundred percent effect), 1 μM GC376 was added. For no inhibition control (ZPE, zero percent effect), no compound was added.
(§3) IC50 values of compounds were calculated with the GraphPad Prism software using the nonlinear regression model of log(inhibitor) vs. response—Variable slope (four parameters). The inhibition activity was calculated using the formula below, IC50 values is calculated using the Inhibition % data.
(§4) [formula] • #HEP: Hundred percent effect controls. Containing substrate+enzyme+1 μM GC376. • ZPE: Zero percent effective controls. Containing enzyme+substrate, no compound. • Sample: Compound activity testing wells. Containing compound+enzyme+substrate. • BG: Compound background control wells. Containing compound+substrate, no enzyme.

SARS-COV2 Mpro = SARS-COV2 Mpro (Severe acute respiratory syndrome coronavirus 2, UniProt P0DTD1); test: COVID-19 (nCoV-2019, SARS-CoV2) Mpro enzymatic assay; assay type: biochemical; conditions: read-out: COVID-19 Mpro IC50
Description: as §1, with “assay.” for “assay. The Km of the Mpro substrate for the protease was 13.5 μM.”
The compounds were added to an assay plate. For 100% inhibition control (HPE, hundred percent effect), 1 μM GC376 was added.
as §3
[formula] • #HEP: Hundred percent effect controls. […] Containing enzyme+substrate, no compound. • Sample: Compound activity testing wells. Containing compound+enzyme+substrate. • BG: Compound background control wells. Containing compound+substrate, no enzyme.

OC43 Mpro = OC43 Mpro (Human coronavirus OC43, UniProt P0C6X6); test: OC43 Mpro enzymatic assay; assay type: biochemical, HCoV OC43
Description: as §1, §2, §3, §4

Chain of 229E Mpro (P0C6X1 2966-3267): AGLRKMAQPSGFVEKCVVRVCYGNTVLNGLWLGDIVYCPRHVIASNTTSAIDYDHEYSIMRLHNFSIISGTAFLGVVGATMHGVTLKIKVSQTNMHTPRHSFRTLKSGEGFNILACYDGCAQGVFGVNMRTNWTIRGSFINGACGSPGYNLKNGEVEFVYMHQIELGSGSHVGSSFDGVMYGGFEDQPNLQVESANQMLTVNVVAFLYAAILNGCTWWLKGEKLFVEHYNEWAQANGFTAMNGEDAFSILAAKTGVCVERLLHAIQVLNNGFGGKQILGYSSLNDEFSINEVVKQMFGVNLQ
Chain of OC43 Mpro (P0C6X6 3247-3549): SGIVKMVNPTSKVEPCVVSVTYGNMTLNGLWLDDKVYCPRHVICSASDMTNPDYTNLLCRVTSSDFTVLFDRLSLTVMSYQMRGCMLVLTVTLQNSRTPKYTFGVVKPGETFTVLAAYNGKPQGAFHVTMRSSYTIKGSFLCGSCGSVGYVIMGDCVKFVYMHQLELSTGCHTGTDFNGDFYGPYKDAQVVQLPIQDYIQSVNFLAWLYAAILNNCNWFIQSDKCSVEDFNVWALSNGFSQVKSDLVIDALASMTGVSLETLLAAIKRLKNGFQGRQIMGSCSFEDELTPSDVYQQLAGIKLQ

Compound: C[C@@H](OC1(C2CC2)CC1)[C@H](NC(=O)C(F)(F)F)C(=O)N1C[C@H]2[C@@H]([C@H]1C(=O)N[C@H](C#N)C[C@@H]1CC3(CC3)NC1=O)C2(C)C [Compound 331, (1R,2S,5S)—N-[(1S)-1-cyano-2-[(6R)-5-oxo-4-azaspiro[2.4]heptan-6-yl]ethyl]-3-[(2S,3R)-3-(1-cyclopropylcyclopropoxy)-2-[(2,2,2-trifluoroacetyl)amino]butanoyl]-6,6-dimethyl-3-azabicyclo[3.1.0]hexane-2-carboxamide]
- IC50 (229E Mpro; Table 3): < 2000 nM
- IC50 (SARS-COV2 Mpro; Table 3): < 2000 nM
- IC50 (OC43 Mpro; Table 3): < 2000 nM

Compound: N#C[C@H](C[C@@H]1CCNC1=O)NC(=O)[C@H](CC1CC1)NC(=O)[C@H](Cc1ccc(F)cc1)NC(=O)c1cnccn1 [Compound 125]
- IC50 (229E Mpro; Table 3): < 2000 nM
- IC50 (SARS-COV2 Mpro; Table 3): 2000 to 10000 nM
- IC50 (OC43 Mpro; Table 3): < 2000 nM

Compound: CC(C)(C)[C@H](N)C(=O)N1C[C@H]2[C@@H]([C@H]1C(=O)N[C@H](C#N)C[C@@H]1CC3(CC3)NC1=O)C2(C)C [Compound 235, (1R,2S,5S)-3-((S)-2-amino-3,3-dimethylbutanoyl)-N—((S)-1-cyano-2-((R)-5-oxo-4-azaspiro[2.4]heptan-6-yl)ethyl)-6,6-dimethyl-3-azabicyclo[3.1.0]hexane-2-carboxamide]
- IC50 (229E Mpro; Table 3): < 2000 nM
- IC50 (SARS-COV2 Mpro; Table 3): < 2000 nM
- IC50 (OC43 Mpro; Table 3): < 2000 nM

Compound: C[C@@H](OC1(C)CC1)[C@H](NC(=O)C(F)(F)F)C(=O)N1C[C@H]2[C@@H](C1C(=O)N[C@H](C#N)C[C@@H]1CC(C)(C)NC1=O)C2(C)C (single isomer, unassigned) [Compound 299a]
- IC50 (229E Mpro; Table 5): < 2000 nM
- IC50 (SARS-COV2 Mpro; Table 5): < 2000 nM
- IC50 (OC43 Mpro; Table 5): < 2000 nM

Compound: CN(C(=O)[C@@H](NC(=O)c1cnccn1)C(C)(C)C)[C@@H](CC1CC1)C(=O)N[C@H](C#N)C[C@@H]1CCCNC1=O [Compound 102, N-[(1S)-1-[[(1S)-2-[[(1S)-1-cyano-2-[(3S)-2-oxo-3-piperidyl]ethyl]amino]-1-(cyclopropylmethyl)-2-oxo-ethyl]-methyl-carbamoyl]-2,2-dimethyl-propyl]pyrazine-2-carboxamide]
- IC50 (229E Mpro; Table 3): 2000 to 10000 nM
- IC50 (SARS-COV2 Mpro; Table 3): > 30000 nM
- IC50 (OC43 Mpro; Table 3): 10000 to 30000 nM

Compound: C[C@@H](OC1CC(F)(F)C1)[C@H](NC(=O)C(F)(F)F)C(=O)N1C[C@H]2[C@@H]([C@H]1C(=O)N[C@H](C#N)C[C@@H]1CC(C)(C)NC1=O)C2(C)C [Compound 330, (1R,2S,5S)—N-[(1S)-1-cyano-2-[(3R)-5,5-dimethyl-2-oxo-pyrrolidin-3-yl]ethyl]-3-[(2S,3R)-3-(3,3-difluorocyclobutoxy)-2-[(2,2,2-trifluoroacetyl)amino]butanoyl]-6,6-dimethyl-3-azabicyclo[3.1.0]hexane-2-carboxamide]
- IC50 (229E Mpro; Table 3): < 2000 nM
- IC50 (SARS-COV2 Mpro; Table 3): < 2000 nM
- IC50 (OC43 Mpro; Table 3): < 2000 nM

Compound: C[C@@H](OC(C)(C)C)[C@H](NC(=O)C1(C(F)(F)F)CC1)C(=O)N1C[C@H]2[C@@H]([C@H]1C(=O)N[C@H](C#N)C[C@@H]1CC(C)(C)NC1=O)C2(C)C [Compound 295, (1R,2S,5S)-3-[(2S,3R)-3-tert-butoxy-2-[[1-(trifluoromethyl)cyclopropanecarbonyl]amino]butanoyl]-N-[(1S)-1-cyano-2-[(3R)-5,5-dimethyl-2-oxo-pyrrolidin-3-yl]ethyl]-6,6-dimethyl-3-azabicyclo[3.1.0]hexane-2-carboxamide]
- IC50 (229E Mpro; Table 5): < 2000 nM
- IC50 (SARS-COV2 Mpro; Table 5): < 2000 nM
- IC50 (OC43 Mpro; Table 5): < 2000 nM

Compound: C[C@@H](OCC(F)(F)F)[C@H](NC(=O)C(F)(F)F)C(=O)N1C[C@H]2[C@@H]([C@H]1C(=O)N[C@H](C#N)C[C@@H]1CC3(CC3)NC1=O)C2(C)C [Compound 319, (1R,2S,5S)—N-[(1S)-1-cyan-2-[(6R)-5-oxo-4-azaspiro[2.4]heptan-6-yl]ethyl]-6,6-dimethyl-3-[(2S,3R)-2-[(2,2,2-trifluoroacetyl)amino]-3-(2,2,2-trifluoroethoxy)butanoyl]-3-azabicyclo[3.1.0]hexane-2-carboxamide]
- IC50 (229E Mpro; Table 5): < 2000 nM
- IC50 (SARS-COV2 Mpro; Table 5): < 2000 nM
- IC50 (OC43 Mpro; Table 5): < 2000 nM

Compound: C[C@@H](OC1(C2CC2)CC1)[C@H](NC(=O)C(F)(F)F)C(=O)N1C[C@H]2[C@@H]([C@H]1C(=O)N[C@H](C#N)C[C@@H]1CC(C)(C)NC1=O)C2(C)C [Compound 324, (1R,2S,5S)—N-[(1S)-1-cyano-2-[(3R)-5,5-dimethyl-2-oxo-pyrrolidin-3-yl]ethyl]-3-[(2S,3R)-3-(1-cyclopropylcyclopropoxy)-2-[(2,2,2-trifluoroacetyl)amino]butanoyl]-6,6-dimethyl-3-azabicyclo[3.1.0]hexane-2-carboxamide]
- IC50 (229E Mpro; Table 3): < 2000 nM
- IC50 (SARS-COV2 Mpro; Table 3): < 2000 nM
- IC50 (OC43 Mpro; Table 3): < 2000 nM

Compound: C[C@@H](OC1CCC1)[C@H](NC(=O)C(F)(F)F)C(=O)N1C[C@H]2[C@@H]([C@H]1C(=O)N[C@H](C#N)C[C@@H]1CC3(CC3)NC1=O)C2(C)C [Compound 327, (1R,2S,5S)—N-[(1S)-1-cyan-2-[(6R)-5-oxo-4-azaspiro[2.4]heptan-6-yl]ethyl]-3-[(2S,3R)-3-(cyclobutoxy)-2-[(2,2,2-trifluoroacetyl)amino]butanoyl]-6,6-dimethyl-3-azabicyclo[3.1.0]hexane-2-carboxamide]
- IC50 (229E Mpro; Table 5): < 2000 nM
- IC50 (SARS-COV2 Mpro; Table 5): < 2000 nM
- IC50 (OC43 Mpro; Table 5): < 2000 nM

Compound: C[C@@H](OC(C)(C)C)[C@H](NC(=O)C(F)(F)F)C(=O)N1C[C@H]2[C@@H]([C@H]1C(=O)N[C@H](C#N)C[C@@H]1CC(C)(C)NC1=O)C2(C)C [Compound 285, (1RSS)-3-[(2S,3R)-3-tert-butoxy-2-[(2,2,2-trifluoroacetyl)amino]butanoyl]-N-[(1S)-1-cyano-2-[(3R)-5,5-dimethyl-2-oxo-pyrrolidin-3-yl]ethyl]-6,6-dimethyl-3-azabicyclo[3.1.0]hexane-2-carboxamide]
- IC50 (229E Mpro; Table 3): < 2000 nM
- IC50 (SARS-COV2 Mpro; Table 3): < 2000 nM
- IC50 (OC43 Mpro; Table 3): < 2000 nM

Compound: C[C@@H](OC1(C)CC1)[C@H](NC(=O)C(F)(F)F)C(=O)N1C[C@H]2[C@@H]([C@H]1C(=O)N[C@H](C#N)C[C@@H]1CC(C)(C)NC1=O)C2(C)C (single isomer, unassigned) [Compound 299]
- IC50 (229E Mpro; Table 3): < 2000 nM
- IC50 (229E Mpro; Table 5): < 2000 nM
- IC50 (SARS-COV2 Mpro; Table 3): < 2000 nM
- IC50 (OC43 Mpro; Table 3): < 2000 nM
- IC50 (OC43 Mpro; Table 5): < 2000 nM

Compound: CC(C)(C)[C@H](NC(=O)C1(CF)CC1(F)F)C(=O)N1C[C@H]2[C@@H]([C@H]1C(=O)N[C@H](C#N)C[C@@H]1CC3(CC3)NC1=O)C2(C)C (single isomer, unassigned) [292 Isomer 1]
- IC50 (229E Mpro; Table 3): < 2000 nM
- IC50 (SARS-COV2 Mpro; Table 3): < 2000 nM
- IC50 (OC43 Mpro; Table 3): < 2000 nM

Compound: CC1(C)C[C@@H](C[C@@H](C#N)NC(=O)[C@@H]2[C@@H]3[C@H](CN2C(=O)[C@@H](NC(=O)C(F)(F)F)C2CCC(C)(C)O2)C3(C)C)C(=O)N1 (some centres unmarked) [Compound 328]
- IC50 (229E Mpro; Table 3): < 2000 nM
- IC50 (SARS-COV2 Mpro; Table 3): < 2000 nM
- IC50 (OC43 Mpro; Table 3): < 2000 nM

Compound: CC(C)(C)[C@H](NC(=O)C1(CF)CC1(F)F)C(=O)N1C[C@H]2[C@@H]([C@H]1C(=O)N[C@H](C#N)C[C@@H]1CC3(CC3)NC1=O)C2(C)C (single isomer, unassigned) [292 Isomer 2]
- IC50 (229E Mpro; Table 3): < 2000 nM
- IC50 (SARS-COV2 Mpro; Table 3): < 2000 nM
- IC50 (OC43 Mpro; Table 3): < 2000 nM

Compound: C[C@@H](OC1CC1)[C@H](NC(=O)C(F)(F)F)C(=O)N1C[C@H]2[C@@H]([C@H]1C(=O)N[C@H](C#N)C[C@@H]1CC(C)(C)NC1=O)C2(C)C (single isomer, unassigned) [Compound 298]
- IC50 (229E Mpro; Table 5): < 2000 nM
- IC50 (SARS-COV2 Mpro; Table 5): < 2000 nM
- IC50 (OC43 Mpro; Table 5): < 2000 nM

Compound: COC(C)(C)[C@H](NC(=O)C(F)(F)F)C(=O)N1C[C@H]2[C@@H]([C@H]1C(=O)N[C@H](C#N)C[C@@H]1CC3(CC3)NC1=O)C2(C)C (single isomer, unassigned) [Compound 284]
- IC50 (229E Mpro; Table 5): 10000 to 30000 nM
- IC50 (SARS-COV2 Mpro; Table 5): < 2000 nM
- IC50 (OC43 Mpro; Table 5): < 2000 nM

Compound: CC1(C)[C@@H]2[C@@H](C(=O)N[C@H](C#N)C[C@@H]3CC4(CC4)NC3=O)N(C(=O)C(NC(=O)C(F)(F)F)C3CCC3)C[C@@H]21 (single isomer, unassigned) [372 Isomer 1]
- IC50 (229E Mpro; Table 3): < 2000 nM
- IC50 (SARS-COV2 Mpro; Table 3): < 2000 nM
- IC50 (OC43 Mpro; Table 3): < 2000 nM

Compound: C[C@@H](OC(C)(C)C(F)(F)F)[C@H](NC(=O)C(F)(F)F)C(=O)N1C[C@H]2[C@@H]([C@H]1C(=O)N[C@H](C#N)C[C@@H]1CC(C)(C)NC1=O)C2(C)C [Compound 357, (1R,2S,5S)—N-[(1S)-1-cyano-2-[(3R)-5,5-dimethyl-2-oxo-pyrrolidin-3-yl]ethyl]-6,6-dimethyl-3-[(2S,3R)-2-[(2,2,2-trifluoroacetyl)amino]-3-(2,2,2-trifluoro-1,1-dimethyl-ethoxy)butanoyl]-3-azabicyclo[3.1.0]hexane-2-carboxamide]
- IC50 (229E Mpro; Table 5): < 2000 nM
- IC50 (SARS-COV2 Mpro; Table 5): < 2000 nM
- IC50 (OC43 Mpro; Table 5): < 2000 nM
